This is an account of results in US9045421B2, “Reagent and method for detection of carboxylic acids by mass spectrometry” (University of Washington, priority 2010, dated 2015).

The test system of the experiment is primary human bronchial cells. Put plainly: Eicosanoid formation in calcium ionophore stimulated primary bronchial epithelial cells (LC/ESI-MSMS of AMPP amides). The format is cell-based. As to conditions: +Ca ionophore (A23187, 10 uM, 20 min, 37° C.); 0.47 million cells per sample. As to the method:
The University of Washington Institutional Review Board approved the studies involving human subjects, and written informed consent was obtained from all participants. Primary bronchial epithelial cells were isolated from a volunteer with asthma during bronchoscopy using a nylon cytology brush of cells from subsegmental airways. To establish primary culture, the epithelial cells were seeded into a culture vessel coated with type 1 collagen in bronchial epithelial basal media (BEBM, Lonza, Allendale, N.J.) supplemented with bovine pituitary extract, insulin, hydrocortisone, gentamicin, amphotericin B, fluconazole, retinoic acid, transferrin, triiodothyronine, epinephrine, and human recombinant epidermal growth factor (serum-free BEGM) and maintained at 37° C. in a humidified incubator. After expansion in vitro, passage 2 epithelial cells were grown to >90% confluence on a 12-well plate. The medium was changed to Hanks balanced salt solution, and the cells were treated with either calcium ionophore (A23187, 10 uM) or a DMSO-containing control solution for 20 min at 37° C. In some studies, the cytosolic phospholipase A2-α inhibitor Pyr-2^6 was present at 5 uM, added from a stock solution in DMSO. The synthesis of eicosanoids was stopped by the addition of 4 volumes of ice methanol with 0.2% formic acid. […] The studies were performed in duplicate. Samples were processed for derivatization with AMPP and LC/ESI-MSMS as for the serum samples.

Take `CNc1ccc2oc(C[C@H]3O[C@@]4(CC[C@H]3C)O[C@H]([C@H](C)C(=O)c3ccc[nH]3)[C@H](C)C[C@H]4C)nc2c1C(=O)O` [Ca ionophore]: the “11(S)-HETE level” value is 3.7 pg, the “15(S)-HETE level” value turned out to be 7.8 pg, the Arachidonic acid level is 242 pg and the PGD2 level worked out at 4.4 pg. The PGE2 level is given as 39 pg, the PGF2α level was 60 pg and the TxB2 level was 1.3 pg.
